Biological target: T1, Oryza sativa αDOX (SEQ ID NO: 1), fatty acid alpha-dioxygenase, Q9M5J1, N-terminal His-tag variant SEQ ID NO: 249 (Oryza sativa subsp. japonica, UniProt Q2QRV3)
T1 construct: made in house; host or cells: Escherichia coli BL21 (DE3), pET30a
T1 sequence (Q2QRV3 1-618): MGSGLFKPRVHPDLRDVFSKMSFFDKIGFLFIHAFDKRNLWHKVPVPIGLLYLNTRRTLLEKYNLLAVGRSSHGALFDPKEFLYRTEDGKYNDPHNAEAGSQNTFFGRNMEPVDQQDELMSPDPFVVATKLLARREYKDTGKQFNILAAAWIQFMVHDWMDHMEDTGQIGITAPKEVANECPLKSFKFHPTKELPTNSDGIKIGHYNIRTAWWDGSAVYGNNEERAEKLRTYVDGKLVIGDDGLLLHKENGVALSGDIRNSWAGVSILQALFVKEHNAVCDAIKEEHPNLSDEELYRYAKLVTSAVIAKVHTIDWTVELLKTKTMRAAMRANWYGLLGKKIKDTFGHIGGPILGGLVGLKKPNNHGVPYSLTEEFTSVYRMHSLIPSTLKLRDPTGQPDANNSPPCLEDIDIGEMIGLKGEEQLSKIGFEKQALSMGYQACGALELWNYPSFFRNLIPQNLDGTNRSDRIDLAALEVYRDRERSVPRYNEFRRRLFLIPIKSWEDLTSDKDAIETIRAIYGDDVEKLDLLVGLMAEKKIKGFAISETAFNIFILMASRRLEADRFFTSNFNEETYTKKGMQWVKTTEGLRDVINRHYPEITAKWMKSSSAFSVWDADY
Experiment: Alpha-dioxygenase activity assay (oxygen consumption, TON)
Type: biochemical
Details: fatty acid 100 µM, enzyme 6 ppm, 50 mM HEPES pH 9.0, 37°C; initial rate of oxygen consumption / enzyme concentration
Excerpt: Oryza sativa αDOX (SEQ ID NO: 1) is a fatty acid alpha-dioxygenase that converts fatty acids into the corresponding 2-hydroperoxy fatty acids and is included as an example of the present invention. A codon optimized gene (SEQ ID NO: 248) encoding for an alpha-dioxygenase variant (SEQ ID NO: 249), including an N-terminal amino acid sequence containing a His-tag was designed and synthesized by Genscript. After gene synthesis, the protein was expressed and purified. In brief, the complete synthetic gene sequence was subcloned into a pET30a vector using the NdeI/HindIII cloning sites. For heterologous expression, Escherichia coli BL21 (DE3) cells were transformed with the recombinant plasmid and a single colony was inoculated into LB medium containing kanamycin (50 mg/L). A pre-starter culture was then inoculated into flasks containing Magic Media (Thermo Fisher, Catalog # K6803) supplemented with kanamycin (50 mg/L) and incubated at 16 °C for 72 h. At an OD600nm = 0.5 - 1.0, 5-aminolevulinic acid (final concentration 0.5 mM) was added. Cells were harvested by centrifugation at 5000 rpm and 4°C and the pellet was lysed using a bacterial cell lysis buffer (B-PER - Themo Fisher, Waltham, MA). After centrifugation, the supernatant was collected, and the protein was purified by one-step purification using HisPur™ Ni-NTA Spin Columns (Thermo Scientific, Catalog # 88226) and standard protocols known in the art. The protein was concentrated using a 10 kDa MW cutoff Amicon Ultra centrifugal filter unit (Millipore Sigma, Catalog# UFC901024), followed by desalting using a disposable PD-10 desalting column (GE Healthcare Life Sciences, Catalog# 17085101) and a buffer containing 50 mM Tris-HCl, 500 mM NaCl, and 10% Glycerol at pH 8.0. […]
Reactions with alpha-dioxygenases were performed as follows. […] The reaction was incubated for up to 10 minutes at 37°C with 200 rpm agitation and the conversion was monitored using an oxygen sensor. The TON (in s-1) were calculated as the ratio between the initial rate of oxygen consumption (in µM/s) and the concentration of enzyme (in µM). […]

## CCCCCCCCCCCCCCCCCC(=O)O [Stearic Acid]
  Stearic Acid, TON: 8.02 s⁻¹

## CCCCCCCC/C=C\CCCCCCCC(=O)O [Oleic Acid]
  Oleic Acid, TON: 5.54 s⁻¹

## CCCCCCCCCCCCCCCC(=O)O [Palmitic Acid]
  Palmitic Acid, TON: 20.58 s⁻¹
